Results reported in patent US10458916B2, “Rapid tests for the detection of inhibitors of enzymes and human exposure to the same” (priority 2011, dated 2019).

Legend:
AChE [1] = target: T1, AChE (Electrophorus electricus, UniProt O42275); assay: Rapid ticket test for AChE inhibitors with lyophilized AChE and NMI substrate discs, hue ratio by reader; conditions: without oxidation
Experimental: Filter discs ( 3/16″ diameter) of porous matrix Surewick Sample Pad C248 SA3J035V06 (Millipore). were punched from sheets using a manual punch and die.
N-methyl indoxyl (NMI) acetate (100 mg, Sigma-Aldrich) was dissolved in 100 mL 200 proof (100%) USP ethyl alcohol (Sigma-Aldrich) for a final concentration of 1 mg/mL and added to the beaker containing the filter pads. The filter discs were mixed gently with a spatula for five minutes. The discs were then carefully removed from the solution and spread out on a polystyrene sheet and dried at 45° C. for two hours. The filter discs were then removed from the oven and stored in a resealable plastic bag with desiccant. […]
The tickets were allowed to react for 15 minutes at room temperature and then inserted into the handheld fluorescence reader comprised of low light color cameras, 400 nm UV LED and custom color analysis software (FIG. 2). Enzyme inhibition was detected by the difference in the hue measurement of the Test Sample compared to the negative control (FIG. 4). The reader calculates a ratio of the hue measured in the test sample well to the hue measured in the negative control well.
Analysis was alternatively performed by visual observation of the ticket using a 400 nm UV LED flashlight (FIGS. 7 and 8). Visually, inhibition was detected directly based on the decrease in fluorescence of the test sample compared to the negative control.

Carboxylesterase (CE) = assay: Rapid ticket test with lyophilized carboxylesterase (CE) and NMI substrate discs, no sample oxidation; conditions: without oxidation
AChE [2] = target: T1, AChE; assay: Effect of heating the AChE reaction vials on time of detection of a positive sample; assay type: biochemical, eel; design: purchased Sigma-Aldrich; conditions: 0.1 ppm oxamyl in water; for Detection result, Heated: heating block 40° C.; for Detection result, Not Heated: room temperature (21° C.)
Experimental: Water obtained from reverse osmosis treatment was spiked with 0.1 ppm oxamyl, a carbamate pesticide. The pesticide-contaminated sample was tested using the procedure described in Example 4. Two sets of two reagent vials containing AChE were opened. To the first vial of each set was added 1 mL of the test sample containing pesticide. To the second vial of each set was added 1 mL of a negative control water. All vials were thoroughly mixed. One set of vials was placed in a heating block set at 40° C., while the other set of vials was allowed to stand at room temperature (21° C.). From each set of vials, 50 μL was sampled at 5, 10, 15, and 20 minutes and transferred to corresponding reaction zones in test tickets. After 15 minutes incubation, the fluorescence in the reaction zones of each ticket were measured on a reader.

[3] = target: T2, cholinesterase in human plasma (Homo sapiens, UniProt P06276); assay: Detection of cholinesterase inhibition in spiked human plasma on the NMI ticket; assay type: biochemical; conditions: human plasma pool spiked to final 100 ppm oxamyl, incubated overnight (22 hours) at room temperature; control zone unspiked pool
T2 construct: from tissue; host or cells: human plasma pool
T2 sequence (P06276 29-602): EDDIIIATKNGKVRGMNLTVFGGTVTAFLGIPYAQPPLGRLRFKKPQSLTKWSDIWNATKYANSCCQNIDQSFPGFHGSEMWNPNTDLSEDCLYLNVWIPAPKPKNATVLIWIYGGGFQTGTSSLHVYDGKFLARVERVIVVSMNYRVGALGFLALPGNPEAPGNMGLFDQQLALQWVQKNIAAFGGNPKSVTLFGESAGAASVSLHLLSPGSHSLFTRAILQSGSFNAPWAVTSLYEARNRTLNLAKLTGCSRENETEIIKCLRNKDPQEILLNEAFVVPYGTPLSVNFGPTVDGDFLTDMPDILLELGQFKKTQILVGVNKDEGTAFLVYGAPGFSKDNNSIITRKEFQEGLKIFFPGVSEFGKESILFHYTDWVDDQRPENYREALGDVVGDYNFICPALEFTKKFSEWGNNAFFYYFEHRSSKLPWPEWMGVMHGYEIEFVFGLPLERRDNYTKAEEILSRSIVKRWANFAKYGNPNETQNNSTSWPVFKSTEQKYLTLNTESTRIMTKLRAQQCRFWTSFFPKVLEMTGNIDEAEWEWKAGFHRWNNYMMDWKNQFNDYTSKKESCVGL

T1 sequence (O42275 24-633): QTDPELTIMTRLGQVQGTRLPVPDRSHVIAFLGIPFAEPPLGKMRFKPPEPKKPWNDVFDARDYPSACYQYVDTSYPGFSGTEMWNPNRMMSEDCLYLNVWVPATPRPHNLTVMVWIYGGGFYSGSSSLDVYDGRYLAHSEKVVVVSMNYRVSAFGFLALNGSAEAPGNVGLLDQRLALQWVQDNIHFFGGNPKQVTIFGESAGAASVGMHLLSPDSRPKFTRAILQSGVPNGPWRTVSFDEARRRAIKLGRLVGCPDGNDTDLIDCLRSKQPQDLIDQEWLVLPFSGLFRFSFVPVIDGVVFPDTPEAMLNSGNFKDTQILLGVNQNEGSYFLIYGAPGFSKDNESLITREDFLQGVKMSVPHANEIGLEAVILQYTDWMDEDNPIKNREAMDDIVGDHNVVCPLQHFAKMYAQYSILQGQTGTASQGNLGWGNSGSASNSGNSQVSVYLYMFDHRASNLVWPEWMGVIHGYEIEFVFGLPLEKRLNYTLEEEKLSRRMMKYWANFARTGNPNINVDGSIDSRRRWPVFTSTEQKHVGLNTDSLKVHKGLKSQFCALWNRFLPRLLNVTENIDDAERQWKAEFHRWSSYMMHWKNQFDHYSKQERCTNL

`CNC(=O)O/N=C/C(C)(C)SC` [Aldicarb, aldicarb] was tested, and the “Reaction with AChE (in words)” value (AChE [1]) was “react strongly with AChE”.
In the case of `COP(N)(=O)SC` (stereo not shown) [Methamidophos, methamidophos], the “Reaction with CE compared with AChE (in words)” value (Carboxylesterase (CE)) is reported as “react more strongly with CE than with AChE”.
With `COP(=S)(OC)Oc1ccc([N+](=O)[O-])cc1` [Methyl Parathion, methyl parathion] the “Reaction with CE compared with AChE (in words)” value (Carboxylesterase (CE)) was “react more strongly with CE than with AChE”.
With `CNC(=O)O/N=C(\SC)C(=O)N(C)C` [Oxamyl, oxamyl] the “Reaction with AChE (in words)” value (AChE [1]) was “react strongly with AChE”, the “Detection result, Heated” value (AChE [2]; 5 min) was “positive” and the “Detection result, Heated” value (AChE [2]; 10 min) was “positive”. For the same compound, the “Detection result, Heated” value (AChE [2]; 15 min) was “positive”, the “Detection result, Heated” value (AChE [2]; 20 min) was “positive” and the “Detection result, Not Heated” value (AChE [2]; 5 min) was “negative”. For the same compound, the “Detection result, Not Heated” value (AChE [2]; 10 min) was “negative”, the “Detection result, Not Heated” value (AChE [2]; 15 min) was “positive” and the “Detection result, Not Heated” value (AChE [2]; 20 min) was “positive”. It also gave a hue ratio [3] of 3.10.
